According to PubChem BioAssay AID180 (DTP/NCI, 2004):
Where “and” joins values, the source holds several entries; their conditions need not be identical. Equal entries are not always repeated.

Tested on: BDF1 mice, Adenocarcinoma 755 s.c., tumor weight T/C
Assay: NCI In Vivo Anticancer Drug Screen. Data for tumor model Adenocarcinoma 755 (subcutaneous) in B6D2F1 (BDF1) mice
Conditions: endpoint: mean tumor weight, higher = larger tumour
Summary of the method: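 Readout: T/C, i.e. treated-group measurement over vehicle-control measurement. Endpoint is survival or tumor size in tumor-bearing mice given compound.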

[1] = dose: 50.0 mg/kg/injection, schedule: Q01DX011 (sc), vehicle: steriod suspending solution
[2] = dose: 15.0 mg/kg/injection, schedule: Q01DX011 (ip), vehicle: methylcellulose (MC)
[3] = dose: 31.0 mg/kg/injection, schedule: Q01DX011 (ip), vehicle: methylcellulose (MC)

CC(C)CCn1cnc2c(SCc3ccccc3F)nc(N)nc21
T/C (dose: 30.0 mg/kg/injection, schedule: Q01DX011 (ip), vehicle: methylcellulose (MC)): 62 % of control | T/C (dose: 100.0 mg/kg/injection, schedule: Q01DX011 (ip), vehicle: methylcellulose (MC)): 65 % of control | T/C (dose: 300.0 mg/kg/injection, schedule: Q01DX011 (ip), vehicle: methylcellulose (MC)): 10 % of control

COc1ccc(C[n+]2cc([O-])on2)cc1
T/C (dose: 0.39 mg/kg/injection, schedule: Q01DX011 (ip), vehicle: carboxymethylcellulose (CMC)): 75 % of control | T/C (dose: 0.78 mg/kg/injection, schedule: Q01DX011 (ip), vehicle: carboxymethylcellulose (CMC)): 80 % of control | T/C (dose: 1.56 mg/kg/injection, schedule: Q01DX011 (ip), vehicle: carboxymethylcellulose (CMC)): 63 % of control | T/C (dose: 3.0 mg/kg/injection, schedule: Q01DX011 (ip), vehicle: carboxymethylcellulose (CMC)): 70 % of control | T/C (dose: 6.0 mg/kg/injection, schedule: Q01DX011 (ip), vehicle: carboxymethylcellulose (CMC)): 89 % of control | T/C (dose: 6.25 mg/kg/injection, schedule: Q01DX011 (ip), vehicle: carboxymethylcellulose (CMC)): 57 % of control | T/C (dose: 12.0 mg/kg/injection, schedule: Q01DX011 (ip), vehicle: carboxymethylcellulose (CMC)): 52 % of control | T/C (dose: 12.5 mg/kg/injection, schedule: Q01DX011 (ip), vehicle: carboxymethylcellulose (CMC)): 51 % of control | T/C (dose: 24.0 mg/kg/injection, schedule: Q01DX011 (ip), vehicle: carboxymethylcellulose (CMC)): 67 % of control

CC1CCN(/N=N/c2nc3c([nH]2)c(=O)n(C)c(=O)n3C)CC1
T/C (dose: 25.0 mg/kg/injection, schedule: Q01DX011 (ip), vehicle: methylcellulose (MC)): 41 % of control | T/C (dose: 75.0 mg/kg/injection, schedule: Q01DX011 (ip), vehicle: methylcellulose (MC)): 57 % of control

N#[N+]c1nc[nH]c1C(N)=O
T/C (dose: 1.25 mg/kg/injection, schedule: Q01DX011 (ip), vehicle: methylcellulose (MC)): 61 % of control

C[C@]12CC[C@H](O)C[C@H]1CC[C@@H]1[C@@H]2CC[C@]2(C)[C@@H](C3=CC(=O)OC3)[C@@H](O)C[C@]12O
T/C (dose: 3.0 mg/kg/injection, schedule: Q01DX011 (sc), vehicle: steriod suspending solution): 91 % of control | T/C (dose: 25.0 mg/kg/injection, schedule: Q01DX011 (sc), vehicle: steriod suspending solution): 80 % of control | T/C [1]: 110 % of control

C1OC1C1CO1 (configuration not stated)
T/C (dose: 3.05 mg/kg/injection, schedule: Q01DX011 (ip), vehicle: carboxymethylcellulose (CMC)): 83 % of control | T/C (dose: 3.5 mg/kg/injection, schedule: Q01DX011 (ip), vehicle: carboxymethylcellulose (CMC)): 77 % of control | T/C (dose: 7.0 mg/kg/injection, schedule: Q01DX011 (ip), vehicle: carboxymethylcellulose (CMC)): 72 % of control | T/C (dose: 8.13 mg/kg/injection, schedule: Q01DX011 (ip), vehicle: carboxymethylcellulose (CMC)): 62 % of control and 68 % of control | T/C (dose: 14.0 mg/kg/injection, schedule: Q01DX011 (ip), vehicle: carboxymethylcellulose (CMC)): 110 % of control | T/C (dose: 24.4 mg/kg/injection, schedule: Q01DX011 (ip), vehicle: carboxymethylcellulose (CMC)): 24 % of control and 33 % of control and 45 % of control | T/C (dose: 28.0 mg/kg/injection, schedule: Q01DX011 (ip), vehicle: carboxymethylcellulose (CMC)): 61 % of control

C[C@]12CCC(=O)C=C1CC[C@@H]1[C@@H]2[C@@H](O)C[C@@]2(C)[C@H]1CC[C@]2(O)C(=O)COC(=O)c1ccc([N+](=O)[O-])cc1Cl
T/C (dose: 25.0 mg/kg/injection, schedule: Q01DX011 (sc), vehicle: water): 43 % of control | T/C (dose: 50.0 mg/kg/injection, schedule: Q01DX011 (sc), vehicle: water): 17 % of control | T/C (dose: 100.0 mg/kg/injection, schedule: Q01DX011 (sc), vehicle: water): 23 % of control | T/C (dose: 200.0 mg/kg/injection, schedule: Q01DX011 (sc), vehicle: water): 4 % of control

CC(C)CCCCCCCCCCCCC(=O)NCC(=O)NC1C(O)C(O)C(Nc2ncnc3nc[nH]c23)OC1C(O)CO (configuration not stated)
T/C (dose: 0.11 mg/kg/injection, schedule: Q## X000 (ip), vehicle: carboxymethylcellulose (CMC)): 62 % of control | T/C (dose: 0.22 mg/kg/injection, schedule: Q01DX011 (ip), vehicle: carboxymethylcellulose (CMC)): 65 % of control | T/C (dose: 0.22 mg/kg/injection, schedule: Q## X000 (ip), vehicle: carboxymethylcellulose (CMC)): 41 % of control | T/C (dose: 0.45 mg/kg/injection, schedule: Q01DX011 (ip), vehicle: carboxymethylcellulose (CMC)): 29 % of control | T/C (dose: 0.45 mg/kg/injection, schedule: Q## X000 (ip), vehicle: carboxymethylcellulose (CMC)): 12 % of control | T/C (dose: 0.9 mg/kg/injection, schedule: Q01DX011 (ip), vehicle: carboxymethylcellulose (CMC)): 5 % of control

Nc1ncnc2c1cnn2CCCl
T/C (dose: 1.5 mg/kg/injection, schedule: Q01DX011 (ip), vehicle: methylcellulose (MC)): 79 % of control | T/C (dose: 1.5 mg/kg/injection, schedule: Q01DX011 (ip), vehicle: saline): 104 % of control | T/C (dose: 3.1 mg/kg/injection, schedule: Q01DX011 (ip), vehicle: methylcellulose (MC)): 31 % of control | T/C (dose: 3.1 mg/kg/injection, schedule: Q01DX011 (ip), vehicle: saline): 90 % of control | T/C (dose: 4.0 mg/kg/injection, schedule: Q01DX011 (ip), vehicle: carboxymethylcellulose (CMC)): 50 % of control and 65 % of control | T/C (dose: 6.2 mg/kg/injection, schedule: Q01DX011 (ip), vehicle: methylcellulose (MC)): 26 % of control and 33 % of control | T/C (dose: 6.2 mg/kg/injection, schedule: Q01DX011 (ip), vehicle: saline): 73 % of control | T/C (dose: 12.5 mg/kg/injection, schedule: Q01DX011 (ip), vehicle: methylcellulose (MC)): 9 % of control | T/C (dose: 12.5 mg/kg/injection, schedule: Q01DX011 (ip), vehicle: saline): 25 % of control | T/C (dose: 16.0 mg/kg/injection, schedule: Q01DX011 (ip), vehicle: carboxymethylcellulose (CMC)): 35 % of control

CC1(C)N=C(N)N=C(N)N1c1cccc(Cl)c1
T/C (dose: 1.15 mg/kg/injection, schedule: Q01DX011 (ip), vehicle: carboxymethylcellulose (CMC)): 89 % of control | T/C (dose: 2.3 mg/kg/injection, schedule: Q01DX011 (ip), vehicle: carboxymethylcellulose (CMC)): 72 % of control | T/C (dose: 4.6 mg/kg/injection, schedule: Q01DX011 (ip), vehicle: carboxymethylcellulose (CMC)): 121 % of control | T/C (dose: 9.2 mg/kg/injection, schedule: Q01DX011 (ip), vehicle: carboxymethylcellulose (CMC)): 88 % of control

CCC(C)Sc1nc(N)nc2c1ncn2C1OC(CO)C(O)C1O (configuration not stated)
T/C (dose: 200.0 mg/kg/injection, schedule: Q01DX011 (ip), vehicle: carboxymethylcellulose (CMC)): 2 % of control | T/C (dose: 300.0 mg/kg/injection, schedule: Q01DX011 (ip), vehicle: carboxymethylcellulose (CMC)): 2 % of control

CC(=O)NCC(=O)O
T/C (dose: 100.0 mg/kg/injection, schedule: Q01DX011 (ip), vehicle: other): 106 % of control | T/C (dose: 200.0 mg/kg/injection, schedule: Q01DX011 (ip), vehicle: other): 74 % of control | T/C (dose: 800.0 mg/kg/injection, schedule: Q01DX011 (ip), vehicle: other): 87 % of control

CSc1ncc(Br)c(=S)[nH]1
T/C [2]: 74 % of control | T/C [3]: 70 % of control

C[C@]12CCC(=O)C=C1CC[C@@H]1[C@@H]2C(=O)C[C@@]2(C)[C@H]1CC[C@]2(O)C(=O)COS(=O)(=O)O
T/C (dose: 5.0 mg/kg/injection, schedule: Q01DX011 (sc), vehicle: steriod suspending solution): 100 % of control | T/C [1]: 91 % of control | T/C (dose: 100.0 mg/kg/injection, schedule: Q01DX011 (sc), vehicle: steriod suspending solution): 57 % of control

CSc1ncc(Br)c(Nc2ccccc2Cl)n1
T/C [2]: 110 % of control | T/C [3]: 104 % of control | T/C (dose: 250.0 mg/kg/injection, schedule: Q01DX011 (ip), vehicle: methylcellulose (MC)): 155 % of control

COC(=O)[C@@H]1c2cc3c(c(O)c2[C@@H](OC2OC(C)C(OC)C(C)(OC)C2OC)C[C@]1(C)O)C(=O)c1c(O)cc2c(c1C3=O)O[C@H]1O[C@]2(C)[C@H](O)[C@@H](N(C)C)[C@@H]1O (some centres not stated)
T/C (dose: 0.2 mg/kg/injection, schedule: Q01DX011 (ip), vehicle: carboxymethylcellulose (CMC)): 83 % of control | T/C (dose: 0.3 mg/kg/injection, schedule: Q01DX011 (ip), vehicle: carboxymethylcellulose (CMC)): 89 % of control | T/C (dose: 0.3 mg/kg/injection, schedule: Q01DX011 (ip), vehicle: saline): 179 % of control | T/C (dose: 0.44 mg/kg/injection, schedule: Q01DX011 (ip), vehicle: carboxymethylcellulose (CMC)): 57 % of control | T/C (dose: 0.44 mg/kg/injection, schedule: Q01DX011 (ip), vehicle: saline): 113 % of control | T/C (dose: 0.67 mg/kg/injection, schedule: Q01DX011 (ip), vehicle: carboxymethylcellulose (CMC)): 99 % of control | T/C (dose: 1.0 mg/kg/injection, schedule: Q01DX011 (ip), vehicle: carboxymethylcellulose (CMC)): 103 % of control

CN(C)c1nc(Cl)nc2c1nc(Cl)n2C1CCCCO1 (configuration not stated)
T/C (dose: 30.0 mg/kg/injection, schedule: Q01DX011 (ip), vehicle: carboxymethylcellulose (CMC)): 102 % of control | T/C (dose: 60.0 mg/kg/injection, schedule: Q01DX011 (ip), vehicle: carboxymethylcellulose (CMC)): 85 % of control | T/C (dose: 120.0 mg/kg/injection, schedule: Q01DX011 (ip), vehicle: carboxymethylcellulose (CMC)): 68 % of control
